ChEMBL document CHEMBL2073872, “Rat multispecific organic anion transporter 1 (rOAT1) transports zidovudine, acyclovir, and other antiviral nucleoside analogs” (J Pharmacol Exp Ther, 2000)

T1: Solute carrier family 22 member 6 (Rattus norvegicus, UniProt O35956)
T1 sequence (O35956 whole entry): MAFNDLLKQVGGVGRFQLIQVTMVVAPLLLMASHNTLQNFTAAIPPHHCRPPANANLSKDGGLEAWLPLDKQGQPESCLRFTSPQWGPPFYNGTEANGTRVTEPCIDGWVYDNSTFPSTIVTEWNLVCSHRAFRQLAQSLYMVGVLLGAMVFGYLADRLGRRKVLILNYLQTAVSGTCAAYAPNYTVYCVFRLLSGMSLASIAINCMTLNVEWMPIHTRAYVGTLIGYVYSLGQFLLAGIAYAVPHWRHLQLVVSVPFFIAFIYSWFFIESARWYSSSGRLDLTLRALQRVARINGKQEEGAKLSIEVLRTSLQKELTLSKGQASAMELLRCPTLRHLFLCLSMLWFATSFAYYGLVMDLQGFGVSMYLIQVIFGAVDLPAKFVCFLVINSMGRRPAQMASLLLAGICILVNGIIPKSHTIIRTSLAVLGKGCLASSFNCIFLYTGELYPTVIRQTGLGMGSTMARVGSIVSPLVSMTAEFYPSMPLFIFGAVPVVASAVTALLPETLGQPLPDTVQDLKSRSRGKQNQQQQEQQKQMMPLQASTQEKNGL

B1: Solute carrier family 22 member 6 (Rattus norvegicus) (protein)
chain: T1 sequence (O35956 whole entry)

Key:
[1] = target: T1, Solute carrier family 22 member 6; assay: TP_TRANSPORTER: inhibition of PAH uptake (PAH: 2 uM, ACV: 1000 uM) in Xenopus laevis oocytes; format: functional, cell-based; conditions: oocyte
[2] = target: T1, Solute carrier family 22 member 6; assay: (§1) TP_TRANSPORTER: uptake in Xenopus laevis oocytes; format: functional, cell-based, Oocyte; conditions: for Activity: oocyte
[3] = target: T1, Solute carrier family 22 member 6; assay: TP_TRANSPORTER: inhibition of PAH uptake (PAH: 2 uM, Foscarnet: 1000 uM) in Xenopus laevis oocytes; format: functional, cell-based; conditions: oocyte
[4] = target: T1, Solute carrier family 22 member 6; assay: TP_TRANSPORTER: inhibition of PAH uptake (PAH: 2 uM, Trifluridine: 1000 uM) in Xenopus laevis oocytes; format: functional, cell-based; conditions: oocyte
[5] = substrate: Nc1nc2c(ncn2COCCO)c(=O)[nH]1; assay: as §1; format: functional, cell-based, Oocyte

Molecule | Activity [2] | other results
Nc1nc2c(ncn2COCCO)c(=O)[nH]1 [ACYCLOVIR] |  | Activity [1]: inhibitor [(at a rough estimate) 50 % of control]
O=c1[nH]cnc2c1ncn2[C@H]1CC[C@@H](CO)O1 [DIDANOSINE] | substrate [+] | 
O=C(O)P(=O)(O)O [FOSCARNET] | is not a substrate [-] | Activity [3]: is not an inhibitor [-]
Nc1ccn([C@@H]2CS[C@H](CO)O2)c(=O)n1 [LAMIVUDINE] | substrate [+] | 
Cc1cn([C@H]2C=C[C@@H](CO)O2)c(=O)[nH]c1=O [STAVUDINE] | substrate [+] | 
O=c1[nH]c(=O)n([C@H]2C[C@H](O)[C@@H](CO)O2)cc1C(F)(F)F [TRIFLURIDINE] | substrate [+] | Activity [4]: inhibitor [(at a rough estimate) 50 % of control]
Nc1ccn([C@H]2CC[C@@H](CO)O2)c(=O)n1 [ZALCITABINE] | substrate [+] | 
Cc1cn([C@H]2C[C@H](N=[N+]=[N-])[C@@H](CO)O2)c(=O)[nH]c1=O [ZIDOVUDINE] |  | Km ([2]; Xenopus laevis oocytes): 68 µM
B1 |  | Km [5]: 242 µM
